From patent US12636366B2, “Ruthenium (II) complexes and conjugates thereof for use as photosensitizer agent in photodynamic therapy” (Paris Sciences et Lettres, priority 2019, dated 2026) come the findings set out here.

Read-outs that look alike come from different tables or passages of the source.

The test system of data set [1] is human cervical carcinoma cells (HeLa). In words: Dark and light cytotoxicity, resazurin cell viability assay, HeLa. The format is cell-based. As to conditions: for PI (IC50 in the dark/IC50 upon light irradiation): 480 nm. Here is the method:
(§1) HeLa and CT-26 cell lines were cultured in DMEM media (Gibco, Life Technologies, USA) supplemented with 10% of fetal calf serum (Gibco). U87 and U373 cell lines were cultured in MEM media with addition of 1% of MEM NEAA (non-essential aminoacids) (Gibco) and 10% of fetal calf serum. RPE-1 cells were cultured in DMEM/F-12 (Gibco) supplemented with 10% of fetal calf serum. RPE-1 stable cells lines were cultured as RPE-1 cells with addition of geneticin (0.5 mg/ml) (Gibco). All cell lines were complemented with 100 U/ml penicillin-streptomycin mixture (Gibco), and maintained in humidified atmosphere at 37° C. and 5% of CO2.
(§2) Dark and light cytotoxicity of the Ru(II) complexes was assessed by fluorometric cell viability assay using resazurin (ACROS Organics). For dark and light cytotoxicity, cells were seeded in triplicates in 96 well plates at a density of 4000 cells per well in 100 μl, 24 h prior to treatment. The medium was then replaced with increasing concentration of the tested complexes and cells were incubated for 4 h. Medium was then replaced for fresh complete medium. Cells used for light cytotoxicity experiment were exposed to: 480 nm light for 10 min, 510 nm for 40 min, 540 for 60 min or 595 nm for 120 min in a 96-well plate using a LUMOS-BIO photoreactor (Atlas Photonics). Each well was individually illuminated with a LED at constant current. After irradiation cells were kept for another 44 h in the incubator and the medium was replaced by fresh complete medium containing resazurin (0.2 mg ml^−1 final concentration). After 4 h incubation at 37° C., the fluorescence signal of the resorufin product was read by SpectraMax M5 microplate reader (ex: 540 nm em: 590 nm). IC50 values were calculated using GraphPad Prism software.
(§3) The potential of the complexes to act as PDT PSs was determined on mouse colon carcinoma cells (CT-26), human glioblastoma cells (U87 and U373), human cervical carcinoma cells (HeLa) as well as non-cancerous retina pigmented epithelial cell line (RPE-1) according to the method described above. […] Ideally, a PDT PS should be non-toxic in the dark and highly toxic upon light activation. […] The toxicity of the compounds upon light irradiation (480 nm, 10 min, 3.21 J cm^−2) was then investigated.
A general note: Alamar Blue is a resazurin reagent that responds to reducing activity.

Data set [2] deals with human glioblastoma cells (U373). In words: Dark and light cytotoxicity, resazurin cell viability assay, U373. The class given is cell-based. Conditions: for PI (IC50 in the dark/IC50 upon light irradiation): U373, 480 nm. As for the experimental part: as §1, §2, §3
Data set [3] has as its system non-cancerous retina pigmented epithelial cell line (RPE-1). In words: Dark and light cytotoxicity, resazurin cell viability assay, RPE-1. As to conditions: for PI (IC50 in the dark/IC50 upon light irradiation): RPE-1, 480 nm. The class given is cell-based. As for the experimental part: as §1, §2, §3
Data set [4] is described as follows: Emission of the complexes in CH3CN upon excitation at 355 nm. The class given is physicochemical. As to conditions: room temperature. As for the experimental part: The absorption of the samples in cuvettes has been measured with a Lambda 800 UV/VIS Spectrometer (PerkinElmer Instruments) and in 96 well plates with a SpectraMax M2 Spectrometer (Molecular Devices). The emission was measured by irradiation of the sample in fluorescence quartz cuvettes (width 1 cm) using a NT342B Nd-YAG pumped optical parametric oscillator (Ekspla) at 355 nm. Luminescence was focused and collected at right angle to the excitation pathway and directed to a Princeton Instruments Acton SP-2300i monochromator equipped with 1200 g/mm grating blazed at 500 nm. As a detector a XPI-Max 4 CCD camera (Princeton Instruments) has been used.
Upon excitation at 355 nm, the emission of the complexes in CH3CN was determined. The maximum of the emission signal was measured between 600-710 nm (Table 1). […] This leads for all investigated complexes to a large Stokes shift implying minimal inference between excitation and luminescence.

Data set [5] in a line: Singlet oxygen measurement, direct evaluation (1O2 luminescence at 1270 nm). The format is physicochemical. As to conditions: direct method, excitation at 450 nm; for Singlet oxygen quantum yield Φ(1O2), CH3CN Direct / Singlet oxygen quantum yield Φ(1O2), D2O Direct: average of three, +-10%. Here is the method: The samples were prepared in an air saturated CH3CN or D2O solution with an absorbance of 0.2 at 450 nm. This solution was irradiated in fluorescence quartz cuvettes (width 1 cm) using a mounted M450LP1 LED (Thorlabs) whose irradiation, centered at 450 nm, has been focused with aspheric condenser lenses. The intensity of the irradiation has been varied using a T-Cube LED Driver (Thorlabs) and measured with an optical power and energy meter. The emission signal was focused and collected at right angle to the excitation pathway and directed to a Princeton Instruments Acton SP-2300i monochromator equipped with 600 g/mm grating blazed at 1200 nm. A longpass glass filter was placed in front of the monochromator entrance slit to cut off light at wavelengths shorter than 850 nm. The slits for detection were fully open. As a detector an EO-817L IR-sensitive liquid nitrogen cooled germanium diode detector (North Coast Scientific Corp.) has been used. The singlet oxygen luminesce at 1270 nm was measured by recording spectra from 1100 to 1400 nm. For the data analysis, the singlet oxygen luminescence peaks at different irradiation intensities were integrated. The resulting areas were plotted against the percentage of the irradiation intensity and the slope of the linear regression calculated. The absorbance of the sample was corrected with an absorbance correction factor. As reference for the measurement in an CH3CN solution phenalenone (Φphenaleone=0.95)^33 and for the measurement in a D2O solution [Ru(bipy)3]Cl2 (ΦRu(bipy)3C12=0.22)^31 was used and the singlet oxygen quantum yields were calculated using the following formula: […]
Additionally, the DFT calculations were able to characterize the lowest energy absorption band as a MLCT transition with a triplet state. With this in hand, a quantitative evaluation of singlet oxygen (^1O2) was performed to assess the potential of the PSs in PDT, by two methods: 1) direct by measurement of the luminescence of ^1O2, 2) indirect by measurement of the variation in absorbance of a reporter molecule, as described above. In the first method, the efficiency of the production of ^1O2 was assessed by measuring its phosphorescence at 1270 nm. Worthy of note, the possibility of detection in this experiment is affected by its environment as well as the used setup. With the setup used in this study, we could only detect Φ(^1O2) larger than 0.20 based on a low peak-to-noise ratio. In the second method (indirect method), ^1O2 is reacting with imidazole (in CH3CN) and histidine (in PBS buffer) to a trans-annular peroxide adduct. This can further quench the absorbance of the reporter molecule p-nitrosodimethyl aniline (RNO), which has been monitored by UV/VIS spectroscopy. In both methods, the ^1O2 production has been compared with a reference molecule, namely a solution of phenalenone in CH3CN (Φ(^1O2)phenaleone=0.95)^33 and a solution of [Ru(bipy)3]Cl2 in water Φ(^1O2)Ru(bipy)3Cl2=0.22)^31. […] In comparison, the values changed drastically in an aqueous solution. […] They have untypically low Φ(^1O2) values in CH3CN (0.22-0.35) for Ru(II) polypyridyl complexes. Subsequently, the ^1O2 production was also quite low in an aqueous environment.

[6] abbreviates: light 480 nm, 10 min, 3.21 J cm^−2, read-out: IC50 Light.
[7] abbreviates: U373, dark, read-out: IC50 Dark.
Where [8] appears, read: U373, light 480 nm, 10 min, 3.21 J cm^−2, read-out: IC50 Light.
Setting [9] is: RPE-1, dark, read-out: IC50 Dark.
Where [10] appears, read: RPE-1, light 480 nm, 10 min, 3.21 J cm^−2, read-out: IC50 Light.

As usually defined, the IC50 is the point on the concentration scale where inhibition reaches its midpoint. With “(2,2′-bipyridine-4,4′-carboxamide)bis(1,10-phenanthroline)ruthenium(II) hexafluorophosphate [Compound 4]”, the IC50 was greater than 100 µM in data set [1] (dark, read-out: IC50 Dark); greater than 100 µM in data set [1] (setting [6]); greater than 100 µM in data set [2] (setting [7]); greater than 100 µM in data set [2] (setting [8]); greater than 100 µM in data set [3] (setting [9]); greater than 100 µM in data set [3] (setting [10]). Further, the “Emission λem” value in data set [4] is 654 nm. The “Singlet oxygen quantum yield Φ(1O2), CH3CN Direct” value in data set [5] was 0.62. Further, in data set [5], the “Singlet oxygen quantum yield Φ(1O2), D2O Direct” value is 0.25.
For the compound “(4,4′-Dimethyl-2,2′-bipyridine)bis(4,7-diphenyl-1,10-phenanthroline)ruthenium(II) hexafluorophosphate [Compound 6]”, the “PI (IC50 in the dark/IC50 upon light irradiation)” value in data set [1] (10 min) turned out to be 22.2; in data set [2] (10 min) it was 12.37; in data set [3] (10 min), 34.9. Also, the IC50 was 13.6 ± 1.3 µM in data set [1] (dark, read-out: IC50 Dark); 0.61 ± 0.06 µM in data set [1] (setting [6]); 23.4 ± 0.53 µM in data set [2] (setting [7]); 1.89 ± 0.07 µM in data set [2] (setting [8]); 28.8 ± 0.94 µM in data set [3] (setting [9]); 0.825 ± 0.03 µM in data set [3] (setting [10]). Also, the “Emission λem” value in data set [4] came to 623 nm. For the same compound, the “Singlet oxygen quantum yield Φ(1O2), CH3CN Direct” value in data set [5] was 0.61. Further, the “Singlet oxygen quantum yield Φ(1O2), D2O Direct (not determinable)” value in data set [5] was “n.d. (n.d. = not determinable, Φ(^1O2) < 0.20)”. In addition, the “Singlet oxygen quantum yield Φ(1O2), D2O Direct” value in data set [5] is given as “not detectable”.
Regarding `Cc1ccnc(-c2cc(C)ccn2)c1.F[P-](F)(F)(F)(F)F.F[P-](F)(F)(F)(F)F.[Ru].c1cnc2c(c1)ccc1cccnc12.c1cnc2c(c1)ccc1cccnc12` [Compound 2, (4,4′-Dimethyl-2,2′-bipyridine)bis(1,10-phenanthroline)ruthenium(II)hexafluorophosphate], the IC50 in data set [1] (dark, read-out: IC50 Dark) was greater than 100 µM; in data set [1] (setting [6]) it was greater than 100 µM; in data set [2] (setting [7]), greater than 100 µM; in data set [2] (setting [8]), greater than 100 µM; in data set [3] (setting [9]), greater than 100 µM; in data set [3] (setting [10]), greater than 100 µM. Moreover, the “Emission λem” value in data set [4] came out at 606 nm. Besides, in data set [5], the “Singlet oxygen quantum yield Φ(1O2), CH3CN Direct” value came to 0.69. Further, the “Singlet oxygen quantum yield Φ(1O2), D2O Direct” value in data set [5] was 0.31.
Consider “((E,E′)-4,4′-Bis(N,N′-dimethylaminovinyl)-2,2′-bipyridine)bis(4,7-diphenyl-1,10-phenanthroline)ruthenium(II) hexafluorophosphate [Compound 7]”, for which the “PI (IC50 in the dark/IC50 upon light irradiation)” value is reported as greater than 6.5 in data set [1] (10 min), greater than 6.7 in data set [2] (10 min) and greater than 11.2 in data set [3] (10 min). The IC50 in data set [1] (dark, read-out: IC50 Dark) was greater than 100 µM; in data set [1] (setting [6]) it was 15.2 ± 1.29 µM; in data set [2] (setting [7]) it was greater than 100 µM; in data set [2] (setting [8]) it was 14.8 ± 0.81 µM; in data set [3] (setting [9]) it was greater than 100 µM; in data set [3] (setting [10]), 8.95 ± 0.5 µM. For the same compound, in data set [4], the “Emission λem” value is 694 nm. Moreover, in data set [5], the “Singlet oxygen quantum yield Φ(1O2), CH3CN Direct” value is recorded as 0.22. Also, the “Singlet oxygen quantum yield Φ(1O2), D2O Direct (not determinable)” value in data set [5] was “n.d. (n.d. = not determinable, Φ(^1O2) < 0.20)”.
On to “((E,E′)-4,4′-Bis(N,N′-dimethylaminovinyl)-2,2′-bipyridine)bis(1,10-phenanthroline)ruthenium(II) hexafluorophosphate [Compound 5]”, for which the IC50 in data set [1] (dark, read-out: IC50 Dark) is greater than 100 µM; in data set [1] (setting [6]) it was greater than 100 µM; in data set [2] (setting [7]), greater than 100 µM; in data set [2] (setting [8]), greater than 100 µM; in data set [3] (setting [9]) it was greater than 100 µM; in data set [3] (setting [10]), greater than 100 µM. In data set [4], the “Emission λem” value amounted to 703 nm. Moreover, in data set [5], the “Singlet oxygen quantum yield Φ(1O2), CH3CN Direct” value turned out to be 0.24. For the same compound, the “Singlet oxygen quantum yield Φ(1O2), D2O Direct (not determinable)” value in data set [5] is listed as “n.d. (n.d. = not determinable, Φ(^1O2) < 0.20)”.
On to “(4,4′-Dibromo-2,2′-bipyridine)bis(1,10-phenanthroline)ruthenium(II) hexafluorophosphate [Compound 3]”, for which the IC50 is greater than 100 µM in data set [1] (dark, read-out: IC50 Dark); greater than 100 µM in data set [1] (setting [6]); greater than 100 µM in data set [2] (setting [7]); greater than 100 µM in data set [2] (setting [8]); greater than 100 µM in data set [3] (setting [9]); greater than 100 µM in data set [3] (setting [10]). Moreover, the “Emission λem” value in data set [4] is recorded as 645 nm. Also, the “Singlet oxygen quantum yield Φ(1O2), CH3CN Direct” value in data set [5] is 0.55. Besides, in data set [5], the “Singlet oxygen quantum yield Φ(1O2), D2O Direct (not determinable)” value was “n.d. (n.d. = not determinable, Φ(^1O2) < 0.20)”. The “Singlet oxygen quantum yield Φ(1O2), D2O Direct” value in data set [5] was “not detectable”.
Turning to `F[P-](F)(F)(F)(F)F.F[P-](F)(F)(F)(F)F.[Ru+2].c1ccc(-c2ccccn2)nc1.c1cnc2c(c1)ccc1cccnc12.c1cnc2c(c1)ccc1cccnc12` [Compound 1, (Bipyridine)bis(1,10-phenanthroline)ruthenium(II)hexafluorophosphate], the IC50 was greater than 100 µM in data set [1] (dark, read-out: IC50 Dark); greater than 100 µM in data set [1] (setting [6]); greater than 100 µM in data set [2] (setting [7]); greater than 100 µM in data set [2] (setting [8]); greater than 100 µM in data set [3] (setting [9]); greater than 100 µM in data set [3] (setting [10]). Besides, the “Emission λem” value in data set [4] is recorded as 600 nm. In data set [5], the “Singlet oxygen quantum yield Φ(1O2), CH3CN Direct” value came to 0.57. Also, in data set [5], the “Singlet oxygen quantum yield Φ(1O2), D2O Direct” value turned out to be 0.27.
